Test results taken from patent US9149038B2, “4-amino-6-(heterocyclic)picolinates and 6-amino-2-(heterocyclic)pyrimidine-4-carboxylates and their use as herbicides” (Dow AgroSciences LLC, priority 2013, dated 2015).
Where two headings read alike, the source gives them in different places.

Assays:
[1] = system: Key Broadleaf Weed and Crop Species; experiment: Post-Emergent Test II: postemergent herbicidal activity, visual rating after 14 d (Table 7); assay type: in vivo; conditions: post-emergence, 336 h; for pest or weed control at 35 g/ha: 35 g ai/ha; for pest or weed control at 70 g/ha: 70 g ai/ha; for pest or weed control at 140 g/ha: 140 g ai/ha
Procedure, shortened: (§1)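 Track-sprayed young seedlings (first/second true leaf) at 187 L/ha across a 2-fold rate series from the high rate down to 1/16×. Kept in greenhouse at 23-29° C day, subirrigated. Injury rated by eye after 14 d, 0 = no injury, 100 = complete kill.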

[2] = system: Key Grass and Sedge Weeds as well as Grass Crops; experiment: Post-Emergent Test II: postemergent herbicidal activity, visual rating after 14 d (Table 8); assay type: in vivo; conditions: post-emergence, 336 h; for pest or weed control at 35 g/ha: 35 g ai/ha; for pest or weed control at 70 g/ha: 70 g ai/ha; for pest or weed control at 140 g/ha: 140 g ai/ha
Procedure, shortened: as §1

[3] = ABUTH: velvetleaf (Abutilon theophrasti), read-out: Visual Growth Reduction (%) 14 Days After Application ABUTH
[4] = AMARE: redroot pigweed (Amaranthus retroflexus), read-out: Visual Growth Reduction (%) 14 Days After Application AMARE
[5] = BRSNN: oilseed rape, canola (Brassica napus), read-out: Visual Growth Reduction (%) 14 Days After Application BRSNN
[6] = CHEAL: lambsquarters (Chenopodium album), read-out: Visual Growth Reduction (%) 14 Days After Application CHEAL
[7] = EPHHL: wild poinsettia (Euphorbia heterophylla), read-out: Visual Growth Reduction (%) 14 Days After Application EPHHL
[8] = HELAN: sunflower (Helianthus annuus), read-out: Visual Growth Reduction (%) 14 Days After Application HELAN
[9] = barnyardgrass (Echinochloa crus-galli), read-out: Visual Growth Reduction (%) 14 Days After Application, ECHCG
[10] = giant foxtail (Setaria faberi), read-out: Visual Growth Reduction (%) 14 Days After Application, SETFA
[11] = maize, corn (Zea mays), read-out: Visual Growth Reduction (%) 14 Days After Application, ZEAMX
[12] = rice (Oryza sativa), read-out: Visual Growth Reduction (%) 14 Days After Application, ORYSA
[13] = wheat, spring (Triticum aestivum), read-out: Visual Growth Reduction (%) 14 Days After Application, TRZAS
[14] = yellow nutsedge (Cyperus esculentus), read-out: Visual Growth Reduction (%) 14 Days After Application, CYPES

| SMILES | pest or weed control at 35 g/ha [1, 3] | pest or weed control at 70 g/ha [1, 3] | pest or weed control at 140 g/ha [1, 3] | pest or weed control at 35 g/ha [1, 4] | pest or weed control at 70 g/ha [1, 4] | pest or weed control at 140 g/ha [1, 4] | pest or weed control at 35 g/ha [1, 5] | pest or weed control at 70 g/ha [1, 5] | pest or weed control at 140 g/ha [1, 5] | pest or weed control at 35 g/ha [1, 6] | pest or weed control at 70 g/ha [1, 6] | pest or weed control at 140 g/ha [1, 6] | pest or weed control at 35 g/ha [1, 7] | pest or weed control at 70 g/ha [1, 7] | pest or weed control at 140 g/ha [1, 7] | pest or weed control at 35 g/ha [1, 8] | pest or weed control at 70 g/ha [1, 8] | pest or weed control at 140 g/ha [1, 8] | pest or weed control at 35 g/ha [2, 9] | pest or weed control at 70 g/ha [2, 9] | further results |
| --- | --- | --- | --- | --- | --- | --- | --- | --- | --- | --- | --- | --- | --- | --- | --- | --- | --- | --- | --- | --- | --- |
| COC(=O)c1nc(-c2cccc3c2OCO3)nc(N)c1OC [Compound 98] | 0 to 29% | 0 to 29% | 0 to 29% | 0 to 29% | 0 to 29% | 30 to 44% | 0 to 29% | 0 to 29% | 0 to 29% | 45 to 59% | 60 to 74% | 60 to 74% | 0 to 29% | 0 to 29% | 0 to 29% | 0 to 29% | 30 to 44% | 60 to 74% | 0 to 29% | 0 to 29% | pest or weed control at 140 g/ha [2, 9]: 0 to 29%; pest or weed control at 35 g/ha [2, 10]: 0 to 29%; pest or weed control at 70 g/ha [2, 10]: 0 to 29%; pest or weed control at 140 g/ha [2, 10]: 0 to 29%; pest or weed control at 35 g/ha [2, 11]: 0 to 29%; pest or weed control at 70 g/ha [2, 11]: 0 to 29%; pest or weed control at 140 g/ha [2, 11]: 0 to 29%; pest or weed control at 35 g/ha [2, 12]: 0 to 29%; pest or weed control at 70 g/ha [2, 12]: 0 to 29%; pest or weed control at 140 g/ha [2, 12]: 0 to 29%; pest or weed control at 35 g/ha [2, 13]: 0 to 29%; pest or weed control at 70 g/ha [2, 13]: 0 to 29%; pest or weed control at 140 g/ha [2, 13]: 0 to 29%; pest or weed control at 35 g/ha [2, 14]: 0 to 29%; pest or weed control at 70 g/ha [2, 14]: 0 to 29%; pest or weed control at 140 g/ha [2, 14]: 0 to 29% |
| COC(=O)c1nc(-c2cccc3c2OC(F)(F)O3)nc(N)c1OC [Compound 99] | 0 to 29% | 0 to 29% | 0 to 29% | 0 to 29% | 0 to 29% | 0 to 29% | 0 to 29% | 0 to 29% | 0 to 29% | 60 to 74% | 75 to 84% | 85 to 94% | 0 to 29% | 0 to 29% | 0 to 29% | 75 to 84% | 85 to 94% | 85 to 94% | 0 to 29% | 0 to 29% | pest or weed control at 140 g/ha [2, 9]: 0 to 29%; pest or weed control at 35 g/ha [2, 10]: 0 to 29%; pest or weed control at 70 g/ha [2, 10]: 0 to 29%; pest or weed control at 140 g/ha [2, 10]: 0 to 29%; pest or weed control at 35 g/ha [2, 11]: 0 to 29%; pest or weed control at 70 g/ha [2, 11]: 0 to 29%; pest or weed control at 140 g/ha [2, 11]: 0 to 29%; pest or weed control at 35 g/ha [2, 12]: 0 to 29%; pest or weed control at 70 g/ha [2, 12]: 0 to 29%; pest or weed control at 140 g/ha [2, 12]: 0 to 29%; pest or weed control at 35 g/ha [2, 13]: 0 to 29%; pest or weed control at 70 g/ha [2, 13]: 0 to 29%; pest or weed control at 140 g/ha [2, 13]: 0 to 29%; pest or weed control at 35 g/ha [2, 14]: 0 to 29%; pest or weed control at 70 g/ha [2, 14]: 0 to 29%; pest or weed control at 140 g/ha [2, 14]: 0 to 29% |
| COC(=O)c1nc(-c2ccc3c(c2)OCC3)c(F)c(N)c1Cl [Compound 100, Methyl 4-amino-3-chloro-6-(2,3-dihydrobenzofuran-6-yl)-5-fluoropicolinate] | 45 to 59% | 85 to 94% | 95 to 100% | 75 to 84% | 95 to 100% | 95 to 100% | 0 to 29% | 0 to 29% | 0 to 29% | 95 to 100% | 95 to 100% | 95 to 100% | 95 to 100% | 95 to 100% | 95 to 100% | 60 to 74% | 60 to 74% | 75 to 84% | 45 to 59% | 75 to 84% | pest or weed control at 140 g/ha [2, 9]: 85 to 94%; pest or weed control at 35 g/ha [2, 10]: 0 to 29%; pest or weed control at 70 g/ha [2, 10]: 0 to 29%; pest or weed control at 140 g/ha [2, 10]: 0 to 29%; pest or weed control at 35 g/ha [2, 11]: 0 to 29%; pest or weed control at 70 g/ha [2, 11]: 95 to 100%; pest or weed control at 140 g/ha [2, 11]: 95 to 100%; pest or weed control at 35 g/ha [2, 12]: 0 to 29%; pest or weed control at 70 g/ha [2, 12]: 0 to 29%; pest or weed control at 140 g/ha [2, 12]: 0 to 29%; pest or weed control at 35 g/ha [2, 13]: 0 to 29%; pest or weed control at 70 g/ha [2, 13]: 0 to 29%; pest or weed control at 140 g/ha [2, 13]: 0 to 29%; pest or weed control at 35 g/ha [2, 14]: 0 to 29%; pest or weed control at 70 g/ha [2, 14]: 0 to 29%; pest or weed control at 140 g/ha [2, 14]: 0 to 29% |
| Nc1c(F)c(-c2ccc3c(c2)OCC3)nc(C(=O)O)c1Cl [Compound 101] | 75 to 84% | 85 to 94% | 95 to 100% | 95 to 100% | 95 to 100% | 95 to 100% | 0 to 29% | 85 to 94% | 95 to 100% | 95 to 100% | 95 to 100% | 95 to 100% | 0 to 29% | 0 to 29% | 30 to 44% | 85 to 94% | 85 to 94% | 85 to 94% | 60 to 74% | 60 to 74% | pest or weed control at 140 g/ha [2, 9]: 75 to 84%; pest or weed control at 35 g/ha [2, 11]: 0 to 29%; pest or weed control at 70 g/ha [2, 11]: 0 to 29%; pest or weed control at 140 g/ha [2, 11]: 0 to 29%; pest or weed control at 35 g/ha [2, 12]: 0 to 29%; pest or weed control at 70 g/ha [2, 12]: 0 to 29%; pest or weed control at 140 g/ha [2, 12]: 0 to 29%; pest or weed control at 35 g/ha [2, 13]: 0 to 29%; pest or weed control at 70 g/ha [2, 13]: 0 to 29%; pest or weed control at 140 g/ha [2, 13]: 0 to 29%; pest or weed control at 35 g/ha [2, 14]: 0 to 29%; pest or weed control at 70 g/ha [2, 14]: 0 to 29%; pest or weed control at 140 g/ha [2, 14]: 0 to 29% |
